From publication PMC8921064 (Archives of Toxicology, 2022)

Experiments:
[1] = Human liver microsomal incubation, metabolite formation quantified by UPLC; details: human, microsomes, pH 7.4
[2] = tested on: human liver microsomes (HLM); assay: as above; details: HLM, substrate Phenanthrene
[3] = Rat liver microsomal incubation, metabolite formation quantified by UPLC; details: Sprague-Dawley, rat, microsomes, pH 7.4
[4] = tested on: rat liver microsomes (RLM); assay: as above; details: RLM, substrate Phenanthrene
[5] = tested on: Salmonella typhimurium TA98; assay: Reverse mutation assay (Ames test), TA98
[6] = tested on: Salmonella typhimurium TA100; assay: Reverse mutation assay (Ames test), TA100
mouse skin = tested on: mouse skin; parameters: method as in Buening et al. [1979]; LaVoie et al. [1981]; details: mouse skin painting; ref Buening et al. [1979]; LaVoie et al. [1981]; cited from earlier work
[7] = tested on: Chinese hamster bone marrow cells; parameters: method as in Bayer [1978]; details: in vivo exposure; ref Bayer [1978]; cited from earlier work
S. typhimurium TA98 = details: ref Bucker et al. [1979], Wood et al. [1979]; cited from earlier work
S. typhimurium TA100 = details: ref Bucker et al. [1979], Wood et al. [1979]; cited from earlier work

c1ccc2c(c1)ccc1ccccc12 [Phenanthrene]
microsomal CLint [1]: 24.2 µL/min/mg
Vmax, formation of 1,2-Dihydro-phenanthrene-diol RT = 3.57 min [2]: 152.5 ± 14.4 pmol/min/mg microsomal protein
Vmax, formation of 1-Phenanthrol RT = 6.31 min [2]: 125.2 ± 5.4 pmol/min/mg microsomal protein
Vmax, formation of 3,4-Dihydro-phenanthrene-diol RT = 2.13 min [2]: 61.5 ± 6.3 pmol/min/mg microsomal protein
Vmax, formation of 3,4-Dihydro-phenanthrene-diol RT = 2.24 min [2]: 6.0 ± 0.3 pmol/min/mg microsomal protein
Vmax, formation of 4-Phenanthrol RT = 6.55 min [2]: 18.0 ± 3.9 pmol/min/mg microsomal protein
Vmax, formation of 9,10-Dihydro-phenanthene-diol RT = 3.38 min [2]: 287.8 ± 17.1 pmol/min/mg microsomal protein
microsomal CLint [3]: 7.3 µL/min/mg
Vmax, formation of 1,2-Dihydro-phenanthrene-diol RT = 3.57 min [4]: 79.3 ± 6.5 pmol/min/mg microsomal protein
Vmax, formation of 1-Phenanthrol RT = 6.31 min [4]: 123.9 ± 19.2 pmol/min/mg microsomal protein
Vmax, formation of 3,4-Dihydro-phenanthrene-diol RT = 2.13 min [4]: 10.3 ± 1.8 pmol/min/mg microsomal protein
Vmax, formation of 3-Phenanthrol RT = 6.02 min [4]: 21.3 ± 2.0 pmol/min/mg microsomal protein
Vmax, formation of 4-Phenanthrol RT = 6.55 min [4]: 24.5 ± 5.5 pmol/min/mg microsomal protein
Vmax, formation of 9,10-Dihydro-phenanthene-diol RT = 3.28 min [4]: 9.8 ± 0.6 pmol/min/mg microsomal protein
Vmax, formation of 9,10-Dihydro-phenanthene-diol RT = 3.38 min [4]: 529.2 ± 43.2 pmol/min/mg microsomal protein
Increase in the number of revertants compared to the concurrent solvent control ([5]; TA98, presence of 5% S9-mix, 10–100 µg): No increases in the number of revertants were observed
Mutagenicity (conclusion) ([5]; TA98, positive if more than threefold over control): tested negative for mutagenicity
Increase in the number of revertants compared to the concurrent solvent control ([6]; TA100, presence of 5% S9-mix, 10–100 µg): No increases in the number of revertants were observed
Mutagenicity (conclusion) ([6]; TA100, positive if more than twofold over control): tested negative for mutagenicity
Tumor-initiating activity (mouse skin): neither phenanthrene nor its monomethylated analogs
DNA adducts [7]: no phenanthrene DNA adducts could be detected
Mutagenicity (S. typhimurium TA98): Neither phenanthrene nor its dihydrodiol metabolites were found to be mutagenic
Mutagenicity (S. typhimurium TA100): Neither phenanthrene nor its dihydrodiol metabolites were found to be mutagenic
